Data reported in US20060210627A1, “Direct compression formulation and process” (priority 2005, published 2006).
Blank lines part the entries; values can stand above or below the molecule they belong to.

Experiments:
[1] = Water sorption/desorption isotherm (dynamic vapor sorption, DVS-1); type: physicochemical; conditions: 25° C.; for moisture gain: at 85% RH
Procedure: Measurements were carried out at 25° C.

[2] = Pharmacokinetic drug-drug interaction study of vildagliptin 100 mg qd and metformin 1000 mg qd in patients with type 2 diabetes; type: in vivo; conditions: human, plasma, single oral dose of 100 mg, concomitantly with 1000 mg of metformin
Procedure: Subjects are given an end-of-study evaluation on the last day of period 2 (Day 20). For all treatment periods, subjects fasted for a minimum of 10 hours pre-dose to 4 hours post-dose. Subjects are considered to have completed the study when all safety and pharmacokinetic evaluations have been completed.
The pharmacokinetic profiles are illustrated in FIG. 5.

[3] = Water solubility (statement); type: physicochemical
clinical [4] = conditions: human, plasma, po
clinical [5] = conditions: human, plasma, po; remark: listed apart in the source

- hygroscopicity [1]: hygroscopic
- moisture gain [1]: 4.2%
SMILES: N#C[C@@H]1CCCN1C(=O)CNC12CC3CC(CC(O)(C3)C1)C2 [vildagliptin amorphous form]

- hygroscopicity [1]: only very slightly hygroscopic
- moisture gain [1]: 0.9%
SMILES: N#C[C@@H]1CCCN1C(=O)CNC12CC3CC(CC(O)(C3)C1)C2 [Crystalline vildagliptin Form A, 1-[(3-Hydroxy-adamant-1-ylamino)-acetyl]-pyrrolidine-2(S)-carbonitrile]

- AUC(0-t) [2]: 1840 ng·h/mL
- Tmax [2]: 2.5 h
- water solubility [3]: highly water soluble
- AUC(0-inf) (clinical [4]; 25 mg): 461 ± 91 ng·h/mL
- AUC(0-t) (clinical [4]; 25 mg): 453 ± 91 ng·h/mL
- Cmax (clinical [4]; 25 mg): 117 ± 41 ng/mL
- Tmax (clinical [4]; 25 mg, tmax (h) median (min, max), single oral 25 mg FMI tablet, healthy volunteers): 1.5 h
- AUC(0-inf) (clinical [4]; 50 mg): 1030 ng·h/mL
- AUC(0-t) (clinical [4]; 50 mg): 1020 ± 193 ng·h/mL
- Cmax (clinical [4]; 50 mg): 245 ± 87 ng/mL
- Tmax (clinical [4]; 50 mg, arithmetic mean tmax of vildagliptin, single oral dose of 50 mg, healthy human subject): 2.1 h
- Tmax (clinical [4]; 50 mg, tmax (h) median (min, max), single oral 50 mg FMI tablet, healthy volunteers): 1.5 h
- AUC(0-inf) (clinical [4]; 100 mg): 2350 ng·h/mL
- AUC(0-t) (clinical [4]; 100 mg): 2330 ± 278 ng·h/mL
- Tmax (clinical [4]; 100 mg, arithmetic mean tmax of vildagliptin, single oral dose of 100 mg, healthy human subject): 2 h
- Tmax (clinical [4]; 100 mg, tmax (h) median (min, max), single oral 100 mg FMI tablet, healthy volunteers): 1.75 h
- AUC(0-inf) (clinical [4]; 200 mg): 5080 ± 721 ng·h/mL
- AUC(0-t) (clinical [4]; 200 mg): 5060 ± 722 ng·h/mL
- Cmax (clinical [4]; 200 mg): 1100 ± 280 ng/mL
- Tmax (clinical [4]; 200 mg, tmax (h) median (min, max), single oral 200 mg FMI tablet, healthy volunteers): 1.25 h
- Tmax (clinical [5]): 1 h
SMILES: N#C[C@@H]1CCCN1C(=O)CNC12CC3CC(CC(O)(C3)C1)C2 [vildagliptin, (S)-1-[(3-hydroxy-1-adamantyl)amino]acetyl-2-cyano-pyrrolidine]
